# pIC50: −log10 of the molar value. Calls of active or inactive are those of the source. The rule behind the calls is not given here. Non-standard residues stand in square brackets, D forms with d. Residues, ends and D or L forms follow the SMILES beside them. Groups on a side chain read outwards from the residue. *: point of attachment. BODIPY(FL) = CC1=CC(C)=[N+]2C1=Cc1ccc(CCC(=O)*)n1[B-]2(F)F; NMeK = CN[C@@H](CCCCN)C(=O)O; Ahx = NCCCCCC(=O)O
# What was measured:
# [1] = Stability in 90% human serum assessed as drug degradation at 1 mM after 15 mins by HPLC analysis; type: ADME, cell-free; settings: read-out: Drug degradation
# [2] = Stability in 90% human serum assessed as drug degradation at 1 mM after 60 mins by HPLC analysis; type: ADME, cell-free; settings: read-out: Drug degradation
# Integrin alpha-V/beta-8 [3] = biological target: T1, Integrin alpha-V/beta-8 (Homo sapiens, UniProt P06756+P26012); experiment: Binding affinity to alphavbeta8 in human REC cells assessed as fluorescence intensity at 10 uM after 1 hr using BDP FL-labeled compound by immunocytochemical analysis; type: cell-based
# Integrin alpha-V/beta-8 [4] = biological target: T1, Integrin alpha-V/beta-8; experiment: Binding affinity to alphavbeta8 in human BHY cells assessed as fluorescence intensity at 10 uM after 1 hr using BDP FL-labeled compound by immunocytochemical analysis; type: cell-based
# Integrin alpha-V/beta-8 [5] = biological target: T1, Integrin alpha-V/beta-8; experiment: Binding affinity to alphavbeta8 in human HN cells assessed as fluorescence intensity at 10 uM after 1 hr using BDP FL-labeled compound by immunocytochemical analysis; type: cell-based
# Integrin alpha-V/beta-5 = Integrin alpha-V/beta-5 (Homo sapiens, UniProt P06756+P18084); experiment: Inhibition of human vitronectin binding to human integrin alphavbeta5 receptor after 1 hr by solid-phase binding assay; type: protein-complex assay
# [6] = biological target: Integrin alpha-IIb/beta-3 (Homo sapiens, UniProt P05106+P08514); experiment: Inhibition of human fibrinogen binding to human platelet integrin alpha2b-beta3 receptor after 1 hr by solid-phase binding assay
# Integrin alpha-V/beta-6 = Integrin alpha-V/beta-6 (Homo sapiens, UniProt P06756+P18564); experiment: Inhibition of LAP binding to human integrin alphavbeta6 receptor after 1 hr by solid-phase binding assay; type: protein-complex assay; settings: read-out: IC50
# Integrin alpha-V/beta-8 [7] = biological target: T1, Integrin alpha-V/beta-8; experiment: Inhibition of LAP binding to human integrin alphavbeta8 receptor after 1 hr by solid-phase binding assay; type: protein-complex assay; settings: read-out: IC50
# Homo sapiens = species: Homo sapiens; experiment: Selectivity ratio of IC50 for human integrin alphavbeta6 receptor to IC50 for human integrin alphavbeta8 receptor
# Integrin alpha-V/beta-3 = Integrin alpha-V/beta-3 (Homo sapiens, UniProt P05106+P06756); experiment: Inhibition of human vitronectin binding to human integrin alphavbeta3 receptor after 1 hr by solid-phase binding assay; type: protein-complex assay
# Integrin alpha-5/beta-1 = Integrin alpha-5/beta-1 (Homo sapiens, UniProt P05556+P08648); experiment: Inhibition of human fibronectin binding to human integrin alpha5beta1 receptor after 1 hr by solid-phase binding assay; type: protein-complex assay
# Integrin alpha-V/beta-8 [8] = biological target: T1, Integrin alpha-V/beta-8; experiment: Binding affinity to alphavbeta8 in TGF-beta1 stimulated human REC cells assessed as fluorescence intensity at 10 uM after 1 hr using fluorescence-labeled compound by immunocytochemical analysis
# Integrin alpha-V/beta-8 [9] = biological target: T1, Integrin alpha-V/beta-8; experiment: Binding affinity to alphavbeta8 in TGF-beta1 stimulated human BHY cells assessed as fluorescence intensity at 10 uM after 1 hr using fluorescence-labeled compound in presence of 10 molar excess peptide 2 by immunocytochemical analysis; type: cell-based
# Integrin alpha-V/beta-8 [10] = biological target: T1, Integrin alpha-V/beta-8; experiment: Binding affinity to alphavbeta8 in TGF-beta1 stimulated human HN cells assessed as fluorescence intensity at 10 uM after 1 hr using in presence of 10 to 20 molar excess peptide 2 by immunocytochemical analysis relative to control
# Integrin alpha-V/beta-8 [11] = biological target: T1, Integrin alpha-V/beta-8; experiment: Binding affinity to alphavbeta8 in TGF-beta1 stimulated human BHY cells assessed as fluorescence intensity at 10 uM after 1 hr using fluorescence-labeled compound in presence of 10 molar excess peptide 1a by immunocytochemical analysis; type: cell-based
# Integrin alpha-V/beta-8 [12] = biological target: T1, Integrin alpha-V/beta-8; experiment: Binding affinity to alphavbeta8 in TGF-beta1 stimulated human BHY cells assessed as fluorescence intensity at 10 uM after 1 hr using in presence of 5 to 100 molar excess peptide 1a by immunocytochemical analysis relative to control; type: cell-based
# [13] = Stability in 90% human serum assessed as drug degradation at 1 mM after 180 mins by HPLC analysis; type: ADME, cell-free; settings: 3 h, 1000 µM
# Sequence of Integrin alpha-5/beta-1 (P05556 21-798 limits assumed): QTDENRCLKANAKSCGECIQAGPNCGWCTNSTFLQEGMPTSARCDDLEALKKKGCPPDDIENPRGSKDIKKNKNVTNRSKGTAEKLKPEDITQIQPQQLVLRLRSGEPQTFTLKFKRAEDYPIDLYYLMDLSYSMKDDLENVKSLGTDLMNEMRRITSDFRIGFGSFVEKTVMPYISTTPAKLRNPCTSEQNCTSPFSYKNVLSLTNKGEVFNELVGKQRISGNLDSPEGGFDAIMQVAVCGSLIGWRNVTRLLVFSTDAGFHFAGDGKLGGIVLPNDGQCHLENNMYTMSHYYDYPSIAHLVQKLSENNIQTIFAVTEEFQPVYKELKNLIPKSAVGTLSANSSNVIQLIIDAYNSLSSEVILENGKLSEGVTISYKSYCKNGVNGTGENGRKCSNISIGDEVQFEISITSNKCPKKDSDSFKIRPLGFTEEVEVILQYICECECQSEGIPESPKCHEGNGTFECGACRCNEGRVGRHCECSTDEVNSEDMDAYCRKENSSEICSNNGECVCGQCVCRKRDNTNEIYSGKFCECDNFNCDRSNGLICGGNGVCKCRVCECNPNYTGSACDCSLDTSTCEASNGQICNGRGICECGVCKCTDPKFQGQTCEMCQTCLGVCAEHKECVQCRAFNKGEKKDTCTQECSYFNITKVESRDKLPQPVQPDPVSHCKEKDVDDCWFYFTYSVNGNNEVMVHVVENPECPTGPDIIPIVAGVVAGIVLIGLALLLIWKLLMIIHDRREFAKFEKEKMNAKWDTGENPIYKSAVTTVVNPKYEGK
# Sequence of Integrin alpha-5/beta-1 (P08648 42-894 limits assumed): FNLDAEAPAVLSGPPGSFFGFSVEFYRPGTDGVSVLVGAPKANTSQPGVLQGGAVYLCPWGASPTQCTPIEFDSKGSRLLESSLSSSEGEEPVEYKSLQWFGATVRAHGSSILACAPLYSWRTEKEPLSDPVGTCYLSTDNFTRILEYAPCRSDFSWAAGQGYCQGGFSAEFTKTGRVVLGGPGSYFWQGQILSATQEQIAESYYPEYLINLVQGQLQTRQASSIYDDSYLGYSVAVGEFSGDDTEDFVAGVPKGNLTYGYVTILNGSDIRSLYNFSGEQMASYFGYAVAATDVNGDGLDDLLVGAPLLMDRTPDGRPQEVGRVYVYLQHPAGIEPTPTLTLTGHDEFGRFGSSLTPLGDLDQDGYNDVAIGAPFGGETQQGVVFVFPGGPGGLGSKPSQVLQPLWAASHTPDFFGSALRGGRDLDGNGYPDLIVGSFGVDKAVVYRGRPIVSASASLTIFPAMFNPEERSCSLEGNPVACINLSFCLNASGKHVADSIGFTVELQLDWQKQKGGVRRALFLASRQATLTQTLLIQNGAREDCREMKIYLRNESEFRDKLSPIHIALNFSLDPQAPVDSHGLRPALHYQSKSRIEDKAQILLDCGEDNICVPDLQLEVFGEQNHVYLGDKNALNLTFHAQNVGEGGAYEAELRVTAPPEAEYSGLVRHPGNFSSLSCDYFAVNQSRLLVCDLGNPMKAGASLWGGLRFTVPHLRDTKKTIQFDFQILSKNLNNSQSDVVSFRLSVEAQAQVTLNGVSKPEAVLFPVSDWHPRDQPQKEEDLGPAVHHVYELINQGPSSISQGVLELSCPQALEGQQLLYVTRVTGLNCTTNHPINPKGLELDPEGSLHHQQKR
# Sequence of Integrin alpha-5/beta-1 (P08648 895-1049 limits assumed): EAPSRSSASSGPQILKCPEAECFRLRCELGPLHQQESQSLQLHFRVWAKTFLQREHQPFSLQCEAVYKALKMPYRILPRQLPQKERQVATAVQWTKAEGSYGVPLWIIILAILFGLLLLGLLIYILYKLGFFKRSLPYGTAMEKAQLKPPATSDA
# Sequence of Integrin alpha-V/beta-3 (P05106 27-788 limits assumed): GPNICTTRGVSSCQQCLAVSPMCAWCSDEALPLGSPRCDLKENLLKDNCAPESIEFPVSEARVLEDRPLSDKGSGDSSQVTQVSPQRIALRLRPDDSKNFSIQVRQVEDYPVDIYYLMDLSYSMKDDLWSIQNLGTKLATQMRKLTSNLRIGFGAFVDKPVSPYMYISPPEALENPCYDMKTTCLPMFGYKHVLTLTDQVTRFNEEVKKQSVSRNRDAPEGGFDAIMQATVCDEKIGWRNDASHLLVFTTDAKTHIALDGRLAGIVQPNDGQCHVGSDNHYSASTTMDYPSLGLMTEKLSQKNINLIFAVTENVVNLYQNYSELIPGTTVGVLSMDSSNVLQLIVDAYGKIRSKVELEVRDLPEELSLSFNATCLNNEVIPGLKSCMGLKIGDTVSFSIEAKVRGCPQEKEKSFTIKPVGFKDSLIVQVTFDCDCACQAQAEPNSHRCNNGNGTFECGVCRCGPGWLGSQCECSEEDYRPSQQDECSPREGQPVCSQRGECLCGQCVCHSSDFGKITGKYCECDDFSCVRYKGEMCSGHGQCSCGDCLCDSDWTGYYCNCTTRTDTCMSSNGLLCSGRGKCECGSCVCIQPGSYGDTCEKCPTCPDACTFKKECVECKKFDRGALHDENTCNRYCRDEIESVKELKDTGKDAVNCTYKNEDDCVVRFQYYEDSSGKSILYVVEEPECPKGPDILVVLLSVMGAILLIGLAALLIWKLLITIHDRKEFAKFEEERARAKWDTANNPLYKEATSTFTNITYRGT
# Sequence of Integrin alpha-V/beta-3 (P06756 31-889 limits assumed): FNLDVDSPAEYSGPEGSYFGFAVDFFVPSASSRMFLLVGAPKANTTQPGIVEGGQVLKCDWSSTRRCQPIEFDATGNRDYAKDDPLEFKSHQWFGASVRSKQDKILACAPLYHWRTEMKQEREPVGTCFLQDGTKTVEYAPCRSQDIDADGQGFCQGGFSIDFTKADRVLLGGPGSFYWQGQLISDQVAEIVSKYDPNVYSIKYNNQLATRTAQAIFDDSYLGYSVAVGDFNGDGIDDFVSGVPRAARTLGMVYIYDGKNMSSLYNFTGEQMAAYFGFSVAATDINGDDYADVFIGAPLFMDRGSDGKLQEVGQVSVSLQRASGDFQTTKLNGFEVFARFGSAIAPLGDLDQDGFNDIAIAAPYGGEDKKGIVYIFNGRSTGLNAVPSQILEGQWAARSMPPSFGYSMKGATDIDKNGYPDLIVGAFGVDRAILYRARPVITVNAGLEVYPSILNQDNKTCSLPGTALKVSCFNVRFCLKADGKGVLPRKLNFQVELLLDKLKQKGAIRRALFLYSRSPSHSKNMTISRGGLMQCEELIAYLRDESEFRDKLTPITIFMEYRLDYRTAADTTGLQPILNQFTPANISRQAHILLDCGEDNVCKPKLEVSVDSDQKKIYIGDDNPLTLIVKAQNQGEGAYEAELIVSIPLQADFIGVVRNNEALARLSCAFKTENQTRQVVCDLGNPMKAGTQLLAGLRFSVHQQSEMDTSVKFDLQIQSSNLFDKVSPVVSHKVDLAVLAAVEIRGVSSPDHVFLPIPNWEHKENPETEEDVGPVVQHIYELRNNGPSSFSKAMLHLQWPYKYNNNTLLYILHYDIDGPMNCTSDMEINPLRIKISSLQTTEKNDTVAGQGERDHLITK
# Sequence of Integrin alpha-V/beta-3 (P06756 891-1048 limits assumed): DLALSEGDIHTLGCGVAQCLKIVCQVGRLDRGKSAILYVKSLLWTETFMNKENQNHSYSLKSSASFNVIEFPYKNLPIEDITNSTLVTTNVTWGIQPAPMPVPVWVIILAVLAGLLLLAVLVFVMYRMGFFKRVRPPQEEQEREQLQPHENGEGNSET
# Sequence of Integrin alpha-IIb/beta-3 (P05106 27-788 limits assumed): as the sequence (P05106 27-788 limits assumed) above
# Sequence of Integrin alpha-IIb/beta-3 (P08514 32-887 limits assumed): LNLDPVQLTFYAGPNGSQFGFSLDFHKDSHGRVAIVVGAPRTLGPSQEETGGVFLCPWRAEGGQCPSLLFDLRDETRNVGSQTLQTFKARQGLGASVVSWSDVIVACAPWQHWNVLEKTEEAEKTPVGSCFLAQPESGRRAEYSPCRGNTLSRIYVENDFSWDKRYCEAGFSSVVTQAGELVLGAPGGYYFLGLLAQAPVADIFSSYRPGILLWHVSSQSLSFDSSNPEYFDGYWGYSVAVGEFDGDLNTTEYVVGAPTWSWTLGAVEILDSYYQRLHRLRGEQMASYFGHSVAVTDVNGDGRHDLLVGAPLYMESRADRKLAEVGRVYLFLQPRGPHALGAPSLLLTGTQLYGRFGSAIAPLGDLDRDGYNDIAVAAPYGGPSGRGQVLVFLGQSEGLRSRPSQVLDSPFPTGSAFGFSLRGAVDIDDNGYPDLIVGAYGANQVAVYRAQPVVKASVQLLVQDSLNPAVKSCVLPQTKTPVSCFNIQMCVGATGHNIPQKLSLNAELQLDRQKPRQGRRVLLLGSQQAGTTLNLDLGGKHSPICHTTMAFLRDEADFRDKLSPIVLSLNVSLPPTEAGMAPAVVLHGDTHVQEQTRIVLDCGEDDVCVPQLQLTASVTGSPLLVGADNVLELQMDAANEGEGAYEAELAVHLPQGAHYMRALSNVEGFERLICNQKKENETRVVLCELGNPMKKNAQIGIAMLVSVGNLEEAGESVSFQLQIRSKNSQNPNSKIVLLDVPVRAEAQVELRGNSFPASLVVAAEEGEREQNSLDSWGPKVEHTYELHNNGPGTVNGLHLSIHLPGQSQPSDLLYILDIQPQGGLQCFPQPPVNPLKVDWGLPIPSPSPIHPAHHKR
# Sequence of Integrin alpha-IIb/beta-3 (P08514 891-1039 limits assumed): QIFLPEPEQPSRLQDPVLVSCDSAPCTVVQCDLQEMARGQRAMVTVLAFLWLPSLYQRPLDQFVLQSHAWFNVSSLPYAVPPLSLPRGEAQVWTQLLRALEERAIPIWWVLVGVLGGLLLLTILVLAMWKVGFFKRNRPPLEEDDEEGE
pIC50 (Integrin alpha-V/beta-6),pIC50 (Integrin alpha-V/beta-8 [7]),Ratio IC50 (Homo sapiens),Compound,further results
7.09,8.74,44.1,CC(C)C[C@@H]1NC(=O)[C@H](CC(=O)O)NC(=O)CNC(=O)[C@H](CCCNC(=N)N)NC(=O)[C@H](Cc2ccccc2)NC(=O)[C@H](C)NC(=O)[C@@H]2CCCN2C(=O)[C@H]2CCCN2C1=O,
6.43,8.24,64,CC(C)C[C@@H]1NC(=O)[C@H](CC(=O)O)NC(=O)[C@H](CO)NC(=O)[C@H](CCCNC(=N)N)NC(=O)[C@H](Cc2ccccc2)NC(=O)[C@H](C)NC(=O)[C@@H]2CCCN2C(=O)[C@H]2CCCN2C1=O,
7.50,8.88,24,CC(C)C[C@@H]1NC(=O)[C@H](C)NC(=O)[C@@H]2CCCN2C(=O)[C@H]2CCCN2C(=O)[C@H](CC(C)C)NC(=O)[C@H](CC(=O)O)NC(=O)CNC(=O)[C@H](CCCNC(=N)N)NC1=O (cyclo(RGDL[dP]PAL)),
6.56,6.78,1.7,CC(C)C[C@@H]1NC(=O)[C@H](CC(=O)O)NC(=O)CNC(=O)[C@H](CCCNC(=N)N)NC(=O)[C@H](C)NC(=O)[C@H](C)NC(=O)[C@H](C)NC(=O)[C@H](C)NC(=O)[C@@H]2CCCN2C(=O)[C@H]2CCCN2C1=O,
7.00,8.10,12,CC(=O)NCCCC[C@H]1C(=O)NCC(=O)N[C@@H](CC(C)C)C(=O)N[C@@H](CCCNC(=N)N)C(=O)NCC(=O)N[C@@H](CC(=O)O)C(=O)N[C@@H](CC(C)C)C(=O)N2CCC[C@@H]2C(=O)N1C (cyclo(RGDL[dP][NMeK](Ac)GL)),pIC50 (Integrin alpha-V/beta-3): 6.46; pIC50 (Integrin alpha-V/beta-5): < 6.00; pIC50 (Integrin alpha-5/beta-1): < 6.00; pIC50 [6]: < 6.00; Stability [13]: Stable
7.41,7.92,3.2,CC(C)C[C@@H]1NC(=O)[C@H](C)NC(=O)[C@@H]2CCCN2C(=O)[C@@H](CCCCN)N(C)C(=O)[C@H](CC(C)C)NC(=O)[C@H](CC(=O)O)NC(=O)CNC(=O)[C@H](CCCNC(=N)N)NC1=O,

# Second part, the compound before the results:
Compound,pIC50 (Integrin alpha-V/beta-6),pIC50 (Integrin alpha-V/beta-8 [7]),Ratio IC50 (Homo sapiens),further results
CC(C)C[C@H](NC(=O)[C@H](CO)NC(=O)[C@H](CC(=O)O)NC(=O)[C@H](CC(C)C)NC(=O)[C@H](CC(=O)O)NC(=O)[C@@H](NC(=O)[C@@H](N)CCCNC(=N)N)[C@@H](C)O)C(=O)N[C@@H](CCCNC(=N)N)C(=O)N[C@H](C(=O)O)[C@@H](C)O,,,,"metabolised at 0.25 h, 1000 µM [1]: 56%; metabolised at 1 h, 1000 µM [2]: 100%"
CC1=CC(C)=[N+]2C1=Cc1ccc(CCC(=O)NCCCCCC(=O)NCCCC[C@@H]3NC(=O)[C@@H](Cc4ccccc4)NC(=O)[C@H](CC(=O)O)NC(=O)CCNC(=O)[C@H](CCCNC(=N)N)NC3=O)n1[B-]2(F)F,,,,Activity (Integrin alpha-V/beta-8 [3]): inactive; Activity (Integrin alpha-V/beta-8 [4]): inactive; Activity (Integrin alpha-V/beta-8 [5]): inactive
CC(C)C[C@@H]1NC(=O)[C@H](CC(=O)O)NC(=O)CNC(=O)[C@H](CCCNC(=N)N)NC(=O)[C@H](Cc2ccccc2)NC(=O)[C@H](CCCCN)N(C)C(=O)[C@H]2CCCN2C(=O)[C@H](Cc2ccccc2)NC(=O)[C@H](C)NC1=O,,,,pIC50 (Integrin alpha-V/beta-5): < 6.00; pIC50 [6]: < 6.00
CC(C)C[C@@H]1NC(=O)[C@H](CC(=O)O)NC(=O)CNC(=O)[C@H](CCCNC(=N)N)NC(=O)[C@H](C)NC(=O)[C@@H]2CCCN2C(=O)[C@H]2CCCN2C(=O)[C@H](Cc2ccccc2)NC(=O)[C@H](C)NC1=O (cyclo(ARGDLAF[dP]P)),,,,pIC50 (Integrin alpha-V/beta-5): < 6.00; pIC50 [6]: < 6.00
CC(C)C[C@@H]1NC(=O)CNC(=O)[C@@H]2CCCN2C(=O)[C@H]2CCCN2C(=O)[C@H](CC(C)C)NC(=O)[C@H](CC(=O)O)NC(=O)CNC(=O)[C@H](CCCNC(=N)N)NC1=O (cyclo(RGDL[dP]PGL)),6.80,8.35,36,pIC50 (Integrin alpha-V/beta-3): < 6.00; pIC50 (Integrin alpha-V/beta-5): < 6.00; pIC50 (Integrin alpha-5/beta-1): < 6.00; pIC50 [6]: < 6.00
CC1=CC(C)=[N+]2C1=Cc1ccc(CCC(=O)NCCCCCC(=O)NCCCC[C@H]3C(=O)NCC(=O)N[C@@H](CC(C)C)C(=O)N[C@@H](CCCNC(=N)N)C(=O)NCC(=O)N[C@@H](CC(=O)O)C(=O)N[C@@H](CC(C)C)C(=O)N4CCC[C@@H]4C(=O)N3C)n1[B-]2(F)F (cyclo(RGDL[dP][NMeK]([Ahx-BODIPY(FL)])GL)),7.33,10.22,,pIC50 (Integrin alpha-V/beta-3): 7.37; pIC50 (Integrin alpha-V/beta-5): < 6.00; pIC50 (Integrin alpha-5/beta-1): 6.16; pIC50 [6]: < 6.00; Activity (Integrin alpha-V/beta-8 [8]): Active; Activity (Integrin alpha-V/beta-8 [3]): Active; Activity (Integrin alpha-V/beta-8 [4]): Active; Activity (Integrin alpha-V/beta-8 [5]): Active; Activity (Integrin alpha-V/beta-8 [9]): inactive; Activity (Integrin alpha-V/beta-8 [10]): 50%; Activity (Integrin alpha-V/beta-8 [11]): inactive; Activity (Integrin alpha-V/beta-8 [12]): inactive
CC(C)C[C@@H]1NC(=O)[C@H](C)NC(=O)[C@H](C)NC(=O)[C@@H]2CCCN2C(=O)[C@H]2CCCN2C(=O)[C@H](CC(C)C)NC(=O)[C@H](CC(=O)O)NC(=O)CNC(=O)[C@H](CCCNC(=N)N)NC(=O)[C@H](C)NC1=O,6.85,7.32,2.9,
CC(C)C[C@@H]1NC(=O)[C@H](C)NC(=O)[C@@H]2CCCN2C(=O)[C@@H](C(C)C)N(C)C(=O)[C@H](CC(C)C)NC(=O)[C@H](CC(=O)O)NC(=O)CNC(=O)[C@H](CCCNC(=N)N)NC1=O,7.51,7.72,1.6,
CCNC(=N)NCCC[C@@H]1NC(=O)[C@H](CC(C)C)NC(=O)CNC(=O)[C@@H]2CCCN2C(=O)[C@H]2CCCN2C(=O)[C@H](CC(C)C)NC(=O)[C@H](CC(=O)O)NC(=O)CNC1=O,6.11,7.42,20,
CC(C)C[C@@H]1NC(=O)[C@H](CC(=O)O)NC(=O)CNC(=O)[C@H](CCCNC(=N)N)NC(=O)[C@H](Cc2c[nH]c3ccccc23)NC(=O)[C@H](C)NC(=O)[C@@H]2CCCN2C(=O)[C@H]2CCCN2C1=O,7.14,8.43,20.1,
CC(C)C[C@@H]1NC(=O)[C@H](CC(=O)O)NC(=O)CNC(=O)[C@H](CCCNC(=N)N)NC(=O)[C@H](CC(=O)O)NC(=O)[C@H](C)NC(=O)[C@@H]2CCCN2C(=O)[C@H]2CCCN2C1=O,7.12,8.20,12,
CC(C)C[C@@H]1NC(=O)[C@H](C)NC(=O)[C@H](Cc2ccccc2)N(C)C(=O)[C@H]2CCCN2C(=O)[C@H](CC(C)C)NC(=O)[C@H](CC(=O)O)NC(=O)CNC(=O)[C@H](CCCNC(=N)N)NC1=O,7.13,7.60,3,
CCCC[C@@H]1NC(=O)[C@H](CC(=O)O)NC(=O)CNC(=O)[C@H](CCCNC(=N)N)NC(=O)[C@H](Cc2ccccc2)NC(=O)[C@H](C)NC(=O)[C@@H]2CCCN2C(=O)[C@H]2CCCN2C1=O,6.85,7.42,3.7,
CC(C)C[C@@H]1NC(=O)[C@H](C)NC(=O)[C@@H]2CCCN2C(=O)[C@H]2CCCN2C(=O)[C@H](CC(C)C)NC(=O)[C@H](CC(=O)O)NC(=O)CNC(=O)[C@H](CCCNC(=N)N)NC(=O)[C@H](C)NC(=O)[C@H](C)NC1=O,6.37,6.57,1.6,
CC(C)C[C@@H]1NC(=O)[C@H](C)NC(=O)[C@@H]2CCCN2C(=O)[C@@H](CC(C)C)N(C)C(=O)[C@H](CC(C)C)NC(=O)[C@H](CC(=O)O)NC(=O)CNC(=O)[C@H](CCCNC(=N)N)NC1=O,7.02,7.82,6.3,
CC(C)C[C@@H]1NC(=O)[C@H](CC(=O)O)NC(=O)CNC(=O)[C@H](CCCNC(=N)N)NC(=O)[C@H](CCCCN)NC(=O)[C@H](C)NC(=O)[C@@H]2CCCN2C(=O)[C@H]2CCCN2C1=O,7.39,8.14,5.6,
CC(C)C[C@@H]1NC(=O)[C@H](C)NC(=O)[C@H](CC(C)C)N(C)C(=O)[C@H]2CCCN2C(=O)[C@H](CC(C)C)NC(=O)[C@H](CC(=O)O)NC(=O)CNC(=O)[C@H](CCCNC(=N)N)NC1=O,6.74,7.47,5.3,

# Source: ChEMBL document CHEMBL4411322 (J Med Chem, 2019)
